The text below walks through data of the NIST ThermoML archive (doi:10.1016/j.jct.2015.04.005).

± gives the expanded uncertainty stated by the source.

Data set [1] is described as follows: xn = mol fraction of the nth substance listed. Particulars: 102.24 kPa, Liquid, x2 = 0; for speed of sound: Frequency=5 MHz, Single path-length method; for mass density: Vibrating tube method.
For data set [2] the following is noted: 102.24 kPa, Liquid, Frequency=5 MHz, Single path-length method.

As for `O` [water] + CCC(=O)[O-].C[NH2+]CCO, the speed of sound in data set [1] (313.15 K) is reported as 1528.9 ± 8 m/s; in data set [1] (328.15 K), 1547.4 ± 8 m/s; in data set [1] (333.15 K), 1551 ± 8 m/s. The figures for the mass density in data set [1] (323.15 K), in data set [1] (328.15 K) and in data set [1] (333.15 K) were 988 ± 1.7 kg/m3, 985.7 ± 1.7 kg/m3 and 983.2 ± 1.7 kg/m3, respectively.
Turning to `CCC(=O)[O-].C[NH2+]CCO` [2-hydroxy-N-methylethanaminium propionate], the speed of sound in data set [2] (293.15 K) was found to be 1656.9 ± 8.1 m/s; in data set [2] (298.15 K), 1638.4 ± 8.1 m/s; in data set [2] (303.15 K) it was 1624.6 ± 8.1 m/s; in data set [2] (308.15 K), 1607 ± 8.1 m/s; in data set [2] (313.15 K), 1588.5 ± 8.1 m/s; in data set [2] (318.15 K), 1573.2 ± 8.1 m/s. For the same compound, the speed of sound in data set [2] (323.15 K) came out at 1558.3 ± 8.1 m/s; in data set [2] (328.15 K), 1543.7 ± 8.1 m/s; in data set [2] (333.15 K), 1527 ± 8.1 m/s; in data set [2] (338.15 K) it was 1507.1 ± 8.1 m/s; in data set [2] (343.15 K) it was 1492.6 ± 8.1 m/s.

One may read the speed of sound as the propagation velocity of pressure waves in the medium. The mass density is the mass of a sample divided by its volume.
